Data taken from patent US20260034236A1, “NEW DRUG COMPLEX” (KOWA COMPANY, LTD., priority 2022, published 2026).

Key:
[1] = test system: mouse colon cancer cell line C26; assay: Drug efficacy test in C26 tumor-bearing nude mice; assay type: in vivo; conditions: after 14 days from administration; tail vein, 3 times every other day; 8 mg/kg (3.9 mg/kg in terms of Pt)
Description: A tumor-bearing model obtained by subcutaneously transplanting a mouse colon cancer cell line C26 (American Type Culture Collection) into a female nude mouse (BALB/c-nu/nu, 7 weeks old; Charles River Laboratories Japan, Inc.) was used for a drug efficacy test.
A mouse colon cancer cell line C26 subcultured in a CO2 incubator was suspended in a liquid medium (Dulbecco's Modified Eagle's Medium-high glucose, Sigma-Aldrich Co. LLC), and injected subcutaneously in the back of nude mice so that the number of cells per mouse was 1×10^6/100 μL. Thereafter, the nude mice were raised for about 1 week, and administration of a drug was started when the average value of the tumor volume had grown to about 30 mm^3. A DACHPt-encapsulating SCNP (DACHPt-encapsulating SCNP prepared using the copolymer of Example 70) was administered into the tail vein (3 times every other day), and the antitumor effect was evaluated based on the tumor volume (4 to 5 mice per 1 group). As a comparison, an oxaliplatin solution (Comparative Example 1) was used, and it was administered in the same manner. The dose of each preparation was 8 mg/kg (3.9 mg/kg in terms of Pt) as the maximum administrable dose for the oxaliplatin solution, and 3 mg/kg in terms of Pt for the DACHPt-encapsulating SCNP. […]

[2] = test system: CD20 antigen-positive human B-cell lymphoma-derived Raji cells; assay: Cytotoxic test (CellTiter-Glo), CD20 antigen-positive cells; assay type: cell-based; conditions: high expression of CD20, cultured 4 days, read-out: IC50(nmol/L) Raji (High expression of CD20)
Description: (§1) CD20 antigen-positive human B-cell lymphoma-derived Raji cells or CD20 antigen-negative human T-lymphoblastic leukemia-derived MOLT-4 cells were adjusted to a cell concentration of 5.0×10^4 cells/mL with the RPMI1640 medium, and 50 μL each was added to the 96-well microplate for cell culture, then cultured overnight. On the next day, 50 μL of the evaluation specimen diluted with the RPMI medium was separately added to the microplate, and the cells were cultured for 4 days at 37° C. under 5% CO2. After the culturing, CellTiter-Glo™ Luminescent Cell Viability Assay (Promega Corporation) was added to the microplate, and the mixture was stirred and left to stand at room temperature for 10 minutes. The light emission amount was then measured with a plate reader (Molecular Devices, LLC.). The cell viability and IC50 value were calculated.

[3] = test system: CD20 antigen-negative human T-lymphoblastic leukemia-derived MOLT-4 cells; assay: Cytotoxic test (CellTiter-Glo), CD20 antigen-negative cells; assay type: cell-based; conditions: cultured 4 days, read-out: IC50(nmol/L) MOLT-4 (CD20 negative)
Description: as §1

Molecule | T/C (ratio of the tumor volume of the drug administration group to that of the control group) [1] | IC50 [2] [nmol/L] | IC50 [3] [nmol/L]
O=C1[O][Pt]2([NH][C@@H]3CCCC[C@H]3[NH]2)[O]C1=O [Comparative Example 1, oxaliplatin] | 1.1 |  | 
rituximab [Comparative Example 4] |  | > 69 | > 69
